Experimental data published in PMC3199943, “Screening the MayBridge Rule of 3 Fragment Library for Compounds That Interact with the Trypanosoma brucei myo-Inositol-3-Phosphate Synthase and/or Show Trypanocidal Activity” (Molecular Biology International, 2011).
Where two headings read alike, the source gives them in different places.

Experiments:
TbINO1 = biological target: T1, TbINO1 (Trypanosoma brucei brucei, UniProt Q5QQ46); assay: biochemical; assay type: binding
T1 sequence (Q5QQ46 1-528): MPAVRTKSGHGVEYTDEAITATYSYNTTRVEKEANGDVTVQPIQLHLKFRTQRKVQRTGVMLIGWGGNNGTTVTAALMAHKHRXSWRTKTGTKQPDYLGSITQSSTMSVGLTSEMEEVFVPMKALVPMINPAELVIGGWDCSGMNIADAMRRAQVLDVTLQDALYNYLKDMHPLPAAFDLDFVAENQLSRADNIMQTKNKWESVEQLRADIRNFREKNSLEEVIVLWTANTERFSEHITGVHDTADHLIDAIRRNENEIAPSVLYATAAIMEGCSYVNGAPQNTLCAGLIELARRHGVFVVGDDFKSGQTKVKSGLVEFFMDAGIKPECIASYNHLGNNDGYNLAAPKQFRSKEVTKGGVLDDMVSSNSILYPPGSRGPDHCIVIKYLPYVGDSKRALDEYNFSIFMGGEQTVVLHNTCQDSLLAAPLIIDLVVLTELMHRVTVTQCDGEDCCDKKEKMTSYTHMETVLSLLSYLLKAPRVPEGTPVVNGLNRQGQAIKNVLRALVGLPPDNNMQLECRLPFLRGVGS

HeLa cells = assay: cells; settings: for viability at 500 µM / CC50: Homo sapiens, HeLa; for viability at 500 µM: 65 h; for HeLa Cells Alamar Blue: Supplementary Table 1; for CC50: read-out: HeLa ED50
Summary of the method: (§1)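 Seed HeLa/A549 at 2 × 10^4 cells/well in DMEM/10% FCS/2 mM L-Gln; treat ~65 h; add Alamar Blue, 5 h more.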

A549 cells = assay: Cytotoxicity against A549 cells, Alamar Blue; assay type: cell-based; settings: Supplementary Table 1, compound 0.5 mM, percentage of controls (n=1); for viability at 500 µM: Homo sapiens, A549, 65 h
Summary of the method: as §1

[1] = read-out: Tb Ino1 Tm Shift [˚C]
[2] = read-out: HeLa Cells Alamar Blue
[3] = Supplementary Table 1, compound 1mM, mean ± SD from Boltzman curve fitting
[4] = compound 0.5 mM, percentage of controls, mean ± SD (n=3) or SE (n=2)
[5] = read-out: HeLa Cells Alamar Blue, Supplementary Table 1, compound 0.5 mM, percentage of controls, mean ± SD (n=3) or SE (n=2)
[6] = read-out: HeLa Cells Alamar Blue (% survival)
[7] = Supplementary Table 1, compound 1mM, mean ± SD from Boltzman curve fitting, read-out: Tb Ino1 Tm Shift [˚C]

Structure (SMILES)	ΔTm at 1000 µM (TbINO1; [1]) [°C]	viability at 500 µM (HeLa cells; [2]) [%]	viability at 500 µM (A549 cells) [%]	further results
OCc1ccc(-c2ccco2)s1 [compound 458, [5‐(2‐furyl)thien‐2‐yl]methanol]	0.6 ± 0.02	94 ± 12.5	73.6	–
Cc1ccc(C#N)c(=O)[nH]1 [compound 109, 6‐methyl‐2‐oxo‐1,2‐dihydropyridine‐3‐carbonitrile]	–	–	–	Tb Ino1 Tm Shift [˚C] (TbINO1; [3]): 0.22 ± 0.06 °C; HeLa Cells Alamar Blue (HeLa cells; [4]): 97.4 ± 2 percentage of controls; A549 Cells Alamar Blue (A549 cells): 118.7 percentage of controls
Oc1noc2ccccc12 [compound 112, benzo[d]isoxazol‐3‐ol]	0.23 ± 0.06	–	76.7	viability at 500 µM (HeLa cells; [5]): 83 ± 11.2%
N#CCCNCC1CCCO1 (stereo not shown) [compound 224, 3‐[(tetrahydrofuran‐2‐ylmethyl)amino]propanenitrile]	–	–	–	Tb Ino1 Tm Shift [˚C] (TbINO1; [3]): 0.21 ± 0.09 °C; HeLa Cells Alamar Blue (HeLa cells; [4]): 96.5 ± 13.7 percentage of controls; A549 Cells Alamar Blue (A549 cells): 60 percentage of controls
OCc1ccc(-n2cccc2)cc1 [compound 372, [4-(1H-pyrrol-1-yl)phenyl]methanol]	–	94.9 ± 19.4	52.9	ΔTm at 1000 µM (TbINO1; read-out: TbIno1 Tm shift [°C]): 3.12 ± 0.04 °C; viability at 500 µM (HeLa cells; [6]): 94.9 ± 19.4%; CC50 (HeLa cells): 3.3 ± 0.21 mM
NCc1csc(-c2cccs2)n1 [compound 599, [2‐(2‐thienyl)‐1,3‐thiazol‐4‐yl]methylamine]	–	–	–	Tb Ino1 Tm Shift [˚C] (TbINO1; [3]): 0.41 ± 0.06 °C; HeLa Cells Alamar Blue (HeLa cells; [4]): 71.9 ± 7.1 percentage of controls; A549 Cells Alamar Blue (A549 cells): 98.4 percentage of controls
Nc1cc2ccccc2cn1 [compound 153, isoquinolin‐3‐amine]	0.27 ± 0.06	88.5 ± 16.5	118	–
Nc1cccc(-c2cccs2)c1 [compound 403, 3‐(2‐thienyl)aniline]	0.04 ± 0.04	49.1 ± 15.7	52.3	–
CN1N=C(C(F)(F)F)CC1=O [compound 315, 1‐methyl‐3‐(trifluoromethyl)‐4,5‐dihydro‐1H‐pyrazol‐5‐one]	–	–	–	Tb Ino1 Tm Shift [˚C] (TbINO1; [3]): 0.09 ± 0.08 °C; HeLa Cells Alamar Blue (HeLa cells; [4]): 109.2 ± 4.4 percentage of controls; A549 Cells Alamar Blue (A549 cells): 88.3 percentage of controls
CC(=O)Nc1cc(C)ccc1O [compound 303, N1‐(2‐hydroxy‐5‐methylphenyl)acetamide]	–	–	–	Tb Ino1 Tm Shift [˚C] (TbINO1; [3]): 0.15 ± 0.07 °C; HeLa Cells Alamar Blue (HeLa cells; [4]): 95.3 ± 9.8 percentage of controls; A549 Cells Alamar Blue (A549 cells): 45 percentage of controls
Nc1ccc(CN2CCOCC2)cc1 [compound 567, 4‐(morpholinomethyl)aniline]	0.61 ± 0.05	90.1 ± 15.9	103	–
OCc1c[nH]c2ccccc12 [compound 162, 1H-indol-3-ylmethanol]	–	16.3 ± 10.6	41.6	ΔTm at 1000 µM (TbINO1; read-out: TbIno1 Tm shift [°C]): 2.31 ± 0.06 °C; viability at 500 µM (HeLa cells; [6]): 16.3 ± 10.6%; CC50 (HeLa cells): 0.103 ± 0.006 mM
Clc1ccc2nonc2c1 [compound 225, 5‐chloro‐2,1,3‐benzoxadiazole]	0.81 ± 0.19	91.4 ± 15.1	68.9	–
OCc1cc(F)cc2c1OCOC2 [compound 476, (6‐fluoro‐4H‐1,3‐benzodioxin‐8‐yl)methanol]	–	–	–	Tb Ino1 Tm Shift [˚C] (TbINO1; [3]): 0.01 ± 0.07 °C; HeLa Cells Alamar Blue (HeLa cells; [4]): 102.6 ± 9.4 percentage of controls; A549 Cells Alamar Blue (A549 cells): 78.9 percentage of controls
CC(C)(C)OC(=O)Nc1ccsc1 [compound 619, tert‐butyl N‐(3‐thienyl)carbamate]	0.21 ± 0.07	80 ± 17.5	74.9	–
Cc1nc(-c2ccc(N)cc2)cs1 [compound 547, 4‐(2‐methyl‐1,3‐thiazol‐4‐yl)phenylamine]	0.12 ± 0.07	74.3 ± 11	63.2	–
CN1CCc2c(sc(N)c2C#N)C1 [compound 581, 2‐amino‐6‐methyl‐4,5,6,7‐tetrahydrothieno[2,3‐c]pyridine‐3‐carbonitrile]	–	–	–	Tb Ino1 Tm Shift [˚C] (TbINO1; [3]): 1.39 ± 0.08 °C; HeLa Cells Alamar Blue (HeLa cells; [4]): 85.8 ± 12.8 percentage of controls; A549 Cells Alamar Blue (A549 cells): 82.2 percentage of controls

Structure (SMILES)	ΔTm at 1000 µM (TbINO1; [1]) [°C]	viability at 500 µM (HeLa cells; [2]) [%]	viability at 500 µM (A549 cells) [%]	further results
O=C(O)C12CC3CC(CC(O)(C3)C1)C2 [compound 597, 3‐hydroxyadamantane‐1‐carboxylic acid]	0.29 ± 0.06	75.2 ± 12.6	79.4	–
CNc1ccc(F)cc1F [compound 144, N1‐methyl‐2,4‐difluoroaniline]	1.09 ± 0.06	79.3 ± 10.3	110	–
O=C(O)c1cccc(-c2ccncc2)c1 [compound 614, 3‐pyrid‐4‐ylbenzoic acid]	0.46 ± 0.12	81.2 ± 15.9	66.3	–
Cc1nc(CO)c(C)o1 [compound 78, (2,5‐dimethyl‐1,3‐oxazol‐4‐yl)methanol]	0.13 ± 0.08	92.7 ± 11.5	110	–
Fc1ccc(-n2cccc2)cc1 [compound 276, 1‐(4‐fluorophenyl)‐1H‐pyrrole]	0.75 ± 0.08	104 ± 16.6	70.2	–
Clc1ccc(Cl)s1 [compound 211, 2,5‐dichlorothiophene]	0.02 ± 0.08	99.6 ± 4.1	117	–
CNCc1ccccc1-c1cccs1 [compound 646, N‐methyl‐N‐(2‐thien‐2‐ylbenzyl)amine]	–	–	66.9	ΔTm at 1000 µM (TbINO1; [7]): 0.1 ± 0.05 °C; viability at 500 µM (HeLa cells; [5]): 36.5 ± 9.5%
COC(=O)c1cccc(CN)c1.Cl [compound 632, 3‐Aminomethylbenzoic acid methyl ester hydrochloride]	–	–	–	Tb Ino1 Tm Shift [˚C] (TbINO1; [3]): 0.22 ± 0.07 °C; HeLa Cells Alamar Blue (HeLa cells; [4]): 44.8 ± 10.2 percentage of controls; A549 Cells Alamar Blue (A549 cells): 107.3 percentage of controls
COC(=O)c1c[nH]c2ccccc12 [compound 392, methyl 1H‐indole‐3‐carboxylate]	0.22 ± 0.06	110 ± 3.7	88.1	–
CC1OCCC1=O (stereo not shown) [compound 11, 2‐methyltetrahydrofuran‐3‐one]	0.77 ± 0.06	101 ± 5.4	85.3	–
CC1Cc2ccccc2C1=O (stereo not shown) [compound 157, 2‐methylindan‐1‐one]	0.14 ± 0.07	94.7 ± 3.5	126	–
O=C1COc2cc(O)ccc21 [compound 182, 6‐hydroxy‐2,3‐dihydrobenzo[b]furan‐3‐one]	–	–	–	Tb Ino1 Tm Shift [˚C] (TbINO1; [3]): 0.92 ± 0.09 °C; HeLa Cells Alamar Blue (HeLa cells; [4]): 119.6 ± 2.4 percentage of controls; A549 Cells Alamar Blue (A549 cells): 65.6 percentage of controls
OCc1ccc(N2CCOCC2)s1 [compound 618, (5‐morpholinothien‐2‐yl)methanol]	1.12 ± 0.11	70.4 ± 13.2	76.3	–
N#Cc1ccnc(N2CCSCC2)c1 [compound 668, 2‐thiomorpholinoisonicotinonitrile]	1.06 ± 0.07	80.3 ± 19.6	98.5	–
O=C(O)c1c[nH]c2ccccc12 [compound 273, 1H‐indole‐3‐carboxylic acid]	0.01 ± 0.05	85.4 ± 12.2	61.8	–
CC(=O)c1ccc(C#N)cc1 [compound 155, 4‐acetylbenzonitrile]	–	87.3 ± 16.6	131	ΔTm at 1000 µM (TbINO1; [7]): 0.19 ± 0.06 °C
